Test results: US5614508A, “Amino acid derivatives of substituted quinoxaline 2,3-dione derivatives as glutamate receptor antagonists” (Warner-Lambert Company, priority 1995, dated 1997)

Assays:
[1] = molecular target: AMPA receptors; test: binding affinity for the AMPA receptors (Honore et al.); settings: Table 1, AMPA
[2] = molecular target: kainate site (non-NMDA receptor); test: binding affinity for the kainate site (non-NMDA receptor) (London and Coyle); settings: Table 1, KA

C=Cc1c(Br)cc2[nH]c(=O)c(=O)[nH]c2c1CN(C)CC(=O)O [Compound 1, [(7-Bromo-2,3-dioxo-6-vinyl-1,2,3,4-tetrahydro-quinoxalin-5-ylmethyl)-methyl-amino]-acetic acid]
IC50 [1]: 1.76 µM
IC50 KA [2]: 4.68 µM

CCc1c(Br)cc2[nH]c(=O)c(=O)[nH]c2c1CN(C)CC(=O)O [Compound 2, [(7-Bromo-6-ethyl-2,3-dioxo-1,2,3,4-tetrahydro-quinoxalin-5-ylmethyl)-methyl-amino]-acetic acid]
IC50 [1]: 2.35 µM
IC50 KA [2]: 6.72 µM

CCOC(=O)CN(C)Cc1c(CC)c([N+](=O)[O-])cc2[nH]c(=O)c(=O)[nH]c12 [Compound 3, [(6-Ethyl-7-nitro-2,3-dioxo-1,2,3,4-tetrahydro-quinoxalin-5-ylmethyl)-methyl-amino]-acetic acid ethyl ester]
IC50 [1]: 0.128 µM
IC50 KA [2]: 3.48 µM

CCc1ccc2[nH]c(=O)c(=O)[nH]c2c1CN(C)CC(=O)O [Compound 4, [(6-Ethyl-2,3-dioxo-1,2,3,4-tetrahydro-quinoxalin-5ylmethyl)-methyl-amino]-acetic acid]
IC50 [1]: 3.92 µM
IC50 KA [2]: 17.05 µM
